The subject of one data set is rat erythrocyte (RBC). The following applies: cited from earlier work.
Data set [1] deals with rat-organ homogenates. The following applies: cited from earlier work.
The test system of data set [2] is rat-organ homogenates. The following applies: cited from earlier work. This is another data set of the same source.
The subject of another data set is prostate cancer. The data set can be described thus: Prostate cancer patients (Example VIII A). Type of data set: in vivo, human. The following applies: daily 10 μg to 5 mg/Kg; no significant differences between the four groups. The method, then:
A group of 40 men aged 55-75 suffering from prostate cancer receive a daily dosage of between 10 μg and 5 mg/Kg body weight of KST-201, KST-213, KST-301 or KST-401 (10 patients per compound). Examination of the patients by clinical, radiographic and histopathological tests show significant shrinkage in tumors, and signs of cell death in 38% of the patients; there are no significant differences between the four treatment groups.

The test system of another data set is Vero cells. The experiment in a line: Cytotoxicity (CD50) on Vero cells. The following applies: 48 hours of exposure. In kind it is cell-based. The source says:
See Example II for tumor cell cytotoxicity of these compounds. […] NAB group 32 contains two compounds, Tolan-2 (also designated herein as KST-201) and Stil-2. Based on the NAB, they were classified as topological isomers. However, chemically they differ because Stil-2, a […], contained a double bonded linker, while Tolan-2 contained a triple bonded linker. The cytotoxicity of the two molecules on Vero cells differed markedly: Tolan-2 was less toxic than Stil-2.

The subject of another data set is HSV-1. The experiment in a line: HSV-1 replication in infected Vero cells (plaque assay). In kind it is cell-based, Herpes Simplex Virus-Type 1. Particulars: at CD50, 75% and 50% of CD50; 24, 48, 72 h. How it is done: For this purpose HSV-1 replication at 24, 48 and 72 h was examined in the presence or absence of varying concentrations of the polyphenol.
The SI is the ratio of the CD50 divided by a selected inhibitory concentration (IC %).
Viral inhibition by Tolan-3 appeared to occur after viral entry into cells. […] Subsequently, the compound was removed and replaced with culture medium alone, and the incubated continued for 48 or 72 more hrs. In a second experiment, HSV-1 infected Vero cells were incubated with 350 μM Tolan-3 for 48 h. Thereafter, the Tolan-3 was removed and replaced by medium and the incubation continued for an additional 24 h. Viral titers were calculated by a standard plaque assay.

The next data set has as its system breast cancer. The experiment in a line: Breast cancer prevention, skin patch (Example VIII C). Type of data set: in vivo, human. The following applies: transdermal patch 10 mg to 100 mg daily, one-year study. The method, then: This study investigates whether KST-201, KST-213, KST-301 and KST-401 administered transdermally each day through a skin patch aid in preventing breast cancer or metastatic cancer following cancer therapy. Patches are prepared with a lipophilic carrier which is readily absorbed through the skin (glycerol cold cream containing glycerin and peanut oil). The HT compound is mixed with the lipophilic cream such that each patch comprises 10 mg to 100 mg of active compound. The patch is applied to the skin each day, and rapid absorption occurs. After two hours, the patch is removed.

Another data set relates to bladder cancer. The data set can be described thus: Bladder cancer patients (Example VIII B). In kind it is in vivo, human. Particulars: intravenous 10 μg to 5 mg/kg over three months; for Patients with significant remission: no differences between compounds. The method, then: A group of 20 men and 20 women aged 50-75 with bladder cancer are treated by intravenous injection of between 10 μg and 5 mg/kg of KST-201, KST-213, KST-301 or KST-401. Each compound is given to a group of 5 men and 5 women) over a period of three months. Clinical, radiographic and histopathological tests show significant remission in 35% of patients, accompanied by signs of cell death in 45%. There are no significant differences between the results with the four compounds.

Another data set relates to ovarian cancer. The experiment in a line: Ovarian cancer patients (Example VIII D). Type of data set: in vivo, human. Particulars: daily gelatin capsule 200 mg. How it is done:
A study is carried out in a group of 40 women with ovarian cancer of various grades to determine the effect of treatment with compounds of KST-201, KST-213, KST-301 and KST-401. The administration protocol involves daily administration of a gelatin capsule containing 200 mg of active compound.

Another data set deals with colon cancer. The experiment in a line: Colon cancer patients (Example VIII E). In kind it is in vivo, human. The following applies: for Dissemination of the tumors: daily bolus injections (intravenous or intramuscular) of 2 g; for Cancer marker carcinoembryonic antigen (CEA) / Progression of the tumor: intravenous infusion 2 g daily for three weeks. The method, then: Eight patients suffering from advanced colon cancer are treated daily for three weeks with an intravenous infusion of 2 g of the compounds KST-201, KST-213, KST-301 or KST-401 dissolved in saline. Two patients are assigned to each compound. The compounds are dissolved in sterile saline. […] Progression of the tumor is also arrested over the treatment period.
Another eight patients with terminal colon cancer are treated by daily bolus injections (intravenous or intramuscular) of 2 g of KST-201, KST-213, KST-301 or KST-401.

A further data set deals with Mushroom tyrosinase. The experiment in a line: Inhibition of mushroom tyrosinase activity. In kind it is biochemical. Particulars: concentration not given. How it is done: All chemical used for reagents were purchased from Sigma Chemical Company. KST201 at each tested concentration (1000, 250 and 100 μM) was dissolved in 10% ethanol from a master mixture of the drug prepared at 0.1M in 100% ethanol.
Mushroom tyrosinase (Sigma) was diluted in 50 mM phosphate buffer, pH 6.5 to yield a concentration of 16 U/μl. […] A master mix containing 0.5 mM L-DOPA [3,4-dihydroxy-1-phenylalanine], 10 mM Sodium L-tyrosine in 50 mM phosphate buffer, pH 6.5 was prepared. The KST-201 dilutions were preincubated with the enzyme for 20 minutes. The samples were pipetted into 24 well plates and the master mixture added quickly. The reaction was read using a kinetic format in which wells were read every 30 seconds over a course of 10 minutes at a wavelength of 475 nm using a Synergy HT Plate reader. A kinetic curve was generated for each sample compared to a total reaction with mushroom tyrosinase without a drug (total).

The source of these data is patent US8716355B2, “Hydroxylated tolans and related compounds in the treatment of a cancer” (Kent State University, priority 2007, dated 2014).

Consider `Oc1ccc(/C=C/c2ccccc2)c(O)c1` [trans-2,4-Dihydroxystilbene], for which the “Inhibition (%) of RBC hemolysis induced by H2O2 at 4 μM” value (“Inhibition (%) … at 4 μM” below) with rat erythrocyte (RBC) was 43.72%. Also, in the data set with rat-organ homogenates [1], the “Inhibition (%) of Fe2+ − VitC induced level of MDA at 15 μM, In rat brain” value (from here on “Inhibition (%) … at 15 μM, In rat brain”) was 55.19%; the “Inhibition (%) of Fe2+ − VitC induced level of MDA at 15 μM, In rat kidney” value (shortened to “Inhibition (%) … at 15 μM, In rat kidney”) was 39.08%; the “Inhibition (%) of Fe2+ − VitC induced level of MDA at 15 μM, In rat liver” value (“Inhibition (%) … at 15 μM, In rat liver” for short) is reported as 42.58%. For the same molecule, in the data set with rat-organ homogenates [2], the “Inhibition (%) of autooxidation MDA level at 7.5 μM, In rat brain” value (shortened to “Inhibition (%) … at 7.5 μM, In rat brain”) is on record as 30.07%; the “Inhibition (%) of autooxidation MDA level at 7.5 μM, In rat kidney” value (“Inhibition (%) … at 7.5 μM, In rat kidney” below) is recorded as 32.27%; the “Inhibition (%) of autooxidation MDA level at 7.5 μM, In rat liver” value (shortened to “Inhibition (%) … at 7.5 μM, In rat liver”) is listed as 42.31%.
As for `Oc1ccc(/C=C/c2ccccc2)cc1` [trans-4-Hydroxystilbene], in the data set with rat erythrocyte (RBC), the “Inhibition (%) … at 4 μM” value is on record as -5.14%. In the data set with rat-organ homogenates [1], the “Inhibition (%) … at 15 μM, In rat brain” value was 43.36%; the “Inhibition (%) … at 15 μM, In rat kidney” value was 29.23%; the “Inhibition (%) … at 15 μM, In rat liver” value is recorded as 32.85%. In addition, in the data set with rat-organ homogenates [2], the “Inhibition (%) … at 7.5 μM, In rat brain” value is 6.64%; the “Inhibition (%) … at 7.5 μM, In rat kidney” value was 19.88%; the “Inhibition (%) … at 7.5 μM, In rat liver” value is −2.31%.
As to `Oc1ccc(/C=C/c2ccc(O)cc2O)cc1` [trans-2,4,4′-Trihydroxystilbene], the “Inhibition (%) … at 4 μM” value in the data set with rat erythrocyte (RBC) is given as 81.85%. Besides, in the data set on rat-organ homogenates [1], the “Inhibition (%) … at 15 μM, In rat brain” value is reported as 94.40%; the “Inhibition (%) … at 15 μM, In rat kidney” value is 87.69%; the “Inhibition (%) … at 15 μM, In rat liver” value is recorded as 92.46%. Also, in the data set on rat-organ homogenates [2], the “Inhibition (%) … at 7.5 μM, In rat brain” value was 90.91%; the “Inhibition (%) … at 7.5 μM, In rat kidney” value was 66.46%; the “Inhibition (%) … at 7.5 μM, In rat liver” value is reported as 93.85%.
For the molecule `Oc1ccc(C#Cc2ccc(C(F)(F)F)cc2)cc1` [KST-213, 4-hydroxy-4′-trifluoromethyltolan], the “Patients with significant shrinkage in tumors, and signs of cell death” value in the data set with prostate cancer was determined as 38%. Also, in the data set with Vero cells, the CD50 stood at 48.2 µM and the “Log CD50” value turned out to be 1.68. The “Effect on HSV-1 viral replication in Vero cells (in words)” value (“Effect on HSV-1 viral replication” below) with HSV-1 is listed as “substantially inhibited”. The “Breast cancer or metastatic cancer in high-risk group” value with breast cancer was “does not show any evidence of breast cancer or other metastatic cancer”. In the data set with bladder cancer, the “Patients with signs of cell death” value stood at 45% and the “Patients with significant remission” value is listed as 35%. Besides, in the data set on ovarian cancer, the “Rate of production of ovarian cancer markers (Muc-1, Sp17)” value was “significant decrease” and the “Tumor growth during study period” value is “Tumors regress or show no further growth”. Also, in the data set with colon cancer, the “Dissemination of the tumors” value is “dissemination of the tumors is diminished”, the “Cancer marker carcinoembryonic antigen (CEA)” value is recorded as “significant reduction” and the “Progression of the tumor” value was “arrested”.
Regarding `Oc1ccc(/C=C/c2ccccc2)cc1O` [trans-3,4-Dihydroxystilbene], the “Inhibition (%) … at 4 μM” value in the data set on rat erythrocyte (RBC) is on record as 97.58%. Besides, in the data set on rat-organ homogenates [1], the “Inhibition (%) … at 15 μM, In rat brain” value is reported as 96.68%; the “Inhibition (%) … at 15 μM, In rat kidney” value is on record as 89.23%; the “Inhibition (%) … at 15 μM, In rat liver” value was 99.27%.
As for `Oc1ccc(/C=C/c2ccccc2)cc1` [Stil-1], in the data set with Vero cells, the CD50 was 131 µM and the “Log CD50” value came out at 2.12.
Take `Oc1ccc(/C=C/c2ccc(O)cc2)cc1` [trans-4,4′-Dihydroxystilbene]: the “Inhibition (%) … at 4 μM” value in the data set with rat erythrocyte (RBC) was 67.17%. Also, in the data set on rat-organ homogenates [1], the “Inhibition (%) … at 15 μM, In rat brain” value is 90.66%; the “Inhibition (%) … at 15 μM, In rat kidney” value is given as 85.23%; the “Inhibition (%) … at 15 μM, In rat liver” value is on record as 68.37%. In the data set with rat-organ homogenates [2], the “Inhibition (%) … at 7.5 μM, In rat brain” value is 85.31%; the “Inhibition (%) … at 7.5 μM, In rat kidney” value is recorded as 62.11%; the “Inhibition (%) … at 7.5 μM, In rat liver” value is 89.23%.
As to `Oc1cc(O)cc(/C=C/c2cc(O)cc(O)c2)c1` [Stil-4, tetrahydroxystilbene], in the data set on Vero cells, the CD50 is greater than 200 µM and the “Log CD50” value is given as 2.30.
`Oc1cc(O)cc(C#Cc2cc(O)cc(O)c2)c1` [KST-401, 3,3′,5,5′-tetrahydroxytolan]: the “Patients with significant shrinkage in tumors, and signs of cell death” value in the data set with prostate cancer was 38%. Besides, in the data set with Vero cells, the CD50 stood at 103 µM and the “Log CD50” value worked out at 2.01. The “Effect on HSV-1 viral replication” value with HSV-1 is “substantial viral inhibition”. Further, in the data set on breast cancer, the “Breast cancer or metastatic cancer in high-risk group” value is reported as “does not show any evidence of breast cancer or other metastatic cancer”. Besides, in the data set on bladder cancer, the “Patients with signs of cell death” value came out at 45% and the “Patients with significant remission” value stood at 35%. In the data set with ovarian cancer, the “Rate of production of ovarian cancer markers (Muc-1, Sp17)” value is recorded as “significant decrease” and the “Tumor growth during study period” value is listed as “Tumors regress or show no further growth”. Also, the “% inhibition of mushroom tyrosinase activity” value in the data set with Mushroom tyrosinase is recorded as 22.7±6.5%. Further, in the data set on colon cancer, the “Dissemination of the tumors” value is given as “dissemination of the tumors is diminished”, the “Cancer marker carcinoembryonic antigen (CEA)” value was “significant reduction” and the “Progression of the tumor” value is “arrested”.
On to `Oc1ccc(/C=C/c2ccc(O)cc2)cc1` [Stil-2], for which, in the data set with Vero cells, the CD50 came out at 53.3 µM and the “Log CD50” value stood at 1.73. Further, in the data set on HSV-1, the “Effect on HSV-1 viral replication” value is on record as “no substantial reduction in viral replication”.
For the molecule `Oc1cc(O)cc(/C=C/c2ccccc2)c1` [trans-3,5-Dihydroxystilbene], the “Inhibition (%) … at 4 μM” value in the data set with rat erythrocyte (RBC) is listed as 19.97%. Moreover, in the data set with rat-organ homogenates [1], the “Inhibition (%) … at 15 μM, In rat brain” value is 12.24%; the “Inhibition (%) … at 15 μM, In rat kidney” value is reported as 0.62%; the “Inhibition (%) … at 15 μM, In rat liver” value is reported as 24.82%. In addition, in the data set with rat-organ homogenates [2], the “Inhibition (%) … at 7.5 μM, In rat brain” value is on record as −5.24%; the “Inhibition (%) … at 7.5 μM, In rat kidney” value is 14.91%; the “Inhibition (%) … at 7.5 μM, In rat liver” value was −5.38%.
